Test results: patent US7998965B2, “Glutamate aggrecanase inhibitors” (Wyeth LLC, priority 2005, dated 2011)
Like-named read-outs stand apart in the source and are kept apart here.

Assays:
[1] = target: T1, purified recombinant human Aggrecanase-2 (Ag2t-Phe628-Strep) (Homo sapiens, UniProt Q9UNA0); experiment: In vitro fluorescence screen for Aggrecanase-2 inhibitors; format: biochemical; settings: for IC50: read-out: Agg 2 IC50
T1 construct: the form used is denoted as Ag2t-Phe628-Strep (MW=41,737)
T1 sequence (Q9UNA0 262-628): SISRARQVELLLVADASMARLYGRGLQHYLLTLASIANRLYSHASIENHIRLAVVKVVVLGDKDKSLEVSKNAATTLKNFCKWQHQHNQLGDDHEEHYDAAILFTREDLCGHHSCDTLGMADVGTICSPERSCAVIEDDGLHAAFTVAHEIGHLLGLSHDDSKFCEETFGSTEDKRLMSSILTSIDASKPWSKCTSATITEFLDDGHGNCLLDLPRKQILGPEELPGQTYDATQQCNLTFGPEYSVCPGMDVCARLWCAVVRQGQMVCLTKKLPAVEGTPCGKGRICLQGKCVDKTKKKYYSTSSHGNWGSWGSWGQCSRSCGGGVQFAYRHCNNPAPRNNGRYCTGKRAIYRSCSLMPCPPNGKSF

[2] = target: T2, purified recombinant human Aggrecanase-1 (rAgg1) (Homo sapiens, UniProt O75173); experiment: In vitro fluorescence screen for Aggrecanase-1 inhibitors; format: biochemical; design: Agg1 % at concentration: scale not given here; settings: for IC50: read-out: Agg1 IC50
T2 sequence (O75173 213-837): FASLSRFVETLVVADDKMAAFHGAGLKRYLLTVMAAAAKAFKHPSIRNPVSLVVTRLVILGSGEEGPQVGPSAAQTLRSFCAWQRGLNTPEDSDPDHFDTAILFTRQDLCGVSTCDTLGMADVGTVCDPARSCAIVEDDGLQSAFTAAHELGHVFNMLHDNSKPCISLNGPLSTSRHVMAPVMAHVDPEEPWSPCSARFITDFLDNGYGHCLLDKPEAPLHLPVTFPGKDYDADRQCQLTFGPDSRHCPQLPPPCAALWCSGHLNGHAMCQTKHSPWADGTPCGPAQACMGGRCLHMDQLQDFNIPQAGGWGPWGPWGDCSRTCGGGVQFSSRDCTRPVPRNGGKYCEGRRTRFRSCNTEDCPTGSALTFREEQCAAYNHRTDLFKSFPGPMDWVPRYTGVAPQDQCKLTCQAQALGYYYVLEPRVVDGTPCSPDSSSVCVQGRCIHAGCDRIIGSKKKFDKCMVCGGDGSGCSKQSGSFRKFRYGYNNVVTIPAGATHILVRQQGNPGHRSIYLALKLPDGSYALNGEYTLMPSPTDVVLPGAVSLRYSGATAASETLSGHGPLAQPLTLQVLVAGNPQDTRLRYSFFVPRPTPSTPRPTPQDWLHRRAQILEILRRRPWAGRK

Compound | IC50 ([1]; Table 3) | IC50 ([2]; Table 3) | IC50 ([1]; Table 2) | IC50 ([2]; Table 2) | also measured
CC(C)(Cc1ccc(Cl)s1)NC(=O)[C@H](CCC(=O)O)NC(=O)c1ccc(-c2ccc(F)c(F)c2)cc1 [Example 8IIIIIII, N-[2-(5-chloro-2-thienyl)-1,1-dimethylethyl]-N^2-[(3′,4′-difluorobiphenyl-4-yl)carbonyl]-L-α-glutamine] | 42 nM | < 30 nM | – | – | –
O=C(O)CC[C@H](NC(=O)c1ccc2c(c1)Cc1ccccc1-2)C(=O)NCc1ccccc1 [Example 8JJJJJ, N^1-benzyl-N^2-(9H-fluoren-2-ylcarbonyl)-L-α-glutamine] | – | – | 1100 nM | 191 nM | –
C[C@@H](CNC(=O)[C@H](CCC(=O)O)NC(=O)c1ccc2c(c1)Cc1ccccc1-2)c1ccccc1 [Example 8JJJJJJ, N^2-(9H-fluoren-2-ylcarbonyl)-N-[(2R)-2-phenylpropyl]-L-α-glutamine] | – | – | 943 nM | 300 nM | –
CC(C)(Cc1ccc(Cl)s1)NC(=O)[C@H](CCC(=O)O)NC(=O)c1ccc(-c2ccccc2)cc1 [Example 8JJJJJJJ, N^2-(biphenyl-4-ylcarbonyl)-N-[2-(5-chloro-2-thienyl)-1,1-dimethylethyl]-L-α-glutamine] | 53 nM | < 30 nM | – | – | –
CC(C)(Cc1ccc(Cl)cc1)NC(=O)[C@H](CCC(=O)O)NC(=O)c1ccc(-c2cccnc2)s1 [Example 8JJJJJJJJ, N-[2-(4-chlorophenyl)-1,1-dimethylethyl]-N^2-[(5-pyridin-3-yl-2-thienyl)carbonyl]-L-α-glutamine] | 800 to 2500 nM | < 30 nM | – | – | –
CC(C)(Cc1ccc(Cl)cc1)NC(=O)[C@H](CCC(=O)O)NC(=O)c1cccc(-c2ccc(Cl)s2)c1 [Example 8JJJJJJJJJ, N-[2-(4-chlorophenyl)-1,1-dimethylethyl]-N^2-[3-(5-chloro-2-thienyl)benzoyl]-L-α-glutamine] | – | – | – | – | Agg 2 % at concentration ([1]; Table 3, at 25000 (nM)): 10%; Agg1 % at concentration ([2]; Table 3, at 25000 (nM)): 25%
O=C(O)CC[C@H](NC(=O)c1ccc(-c2ccccc2)cc1)C(=O)NCCc1ccc(Br)cc1 [Example 8KKK, N^2-(biphenyl-4-ylcarbonyl)-N^1-[2-(4-bromophenyl)ethyl]-L-α-glutamine] | – | – | – | – | IC50 ([1]; Table 1): 2000 nM; IC50 ([2]; Table 1): 120 nM
O=C(O)CC[C@H](NC(=O)C1c2ccccc2-c2ccccc21)C(=O)NCc1ccccc1 [Example 8KKKKK, N^1-benzyl-N^2-(9H-fluoren-9-ylcarbonyl)-L-α-glutamine] | – | – | > 22000 nM | > 50000 nM | –

The next lines start with results.

IC50 ([1]; Table 3) | IC50 ([2]; Table 3) | IC50 ([1]; Table 2) | IC50 ([2]; Table 2) | Compound | also measured
– | – | 1670 nM | 350 nM | C[C@@H](CNC(=O)[C@H](CCC(=O)O)NC(=O)c1ccc(-c2ccccc2)cc1)c1ccccc1 [Example 8KKKKKK, N^2-(biphenyl-4-ylcarbonyl)-N-[(2R)-2-phenylpropyl]-L-α-glutamine] | –
< 30 nM | < 30 nM | – | – | CC(C)(Cc1ccc(Cl)s1)NC(=O)[C@H](CCC(=O)O)NC(=O)c1ccc(-c2ccc(F)c(Cl)c2)s1 [Example 8KKKKKKK, N^2-{[5-(3-chloro-4-fluorophenyl)-2-thienyl]carbonyl}-N-[2-(5-chloro-2-thienyl)-1,1-dimethylethyl]-L-α-glutamine] | –
– | – | > 200000 nM | > 17000 nM | O=C(O)CC[C@H](NC(=O)c1cccc(Oc2ccccc2)c1)C(=O)NCc1ccccc1 [Example 8LLLLL, N^1-benzyl-N^2-(3-phenoxybenzoyl)-L-α-glutamine] | –
– | – | > 100000 nM | > 25000 nM | CC(C)(Cc1ccc(F)cc1)NC(=O)[C@H](CCC(N)=O)NC(=O)c1ccc(-c2ccccc2)cc1 [Example 8LLLLLL, N^2-(biphenyl-4-ylcarbonyl)-N^1-[2-(4-fluorophenyl)-1,1-dimethylethyl]-L-α-glutamamide] | –
3380 nM | 228 nM | – | – | COc1cc(CNC(=O)[C@H](CCC(=O)O)NC(=O)c2ccc(-c3ccc(CO)cc3)cc2)cc(OC)c1OC [Example 8LLLLLLL, N^2-{[4′-(hydroxymethyl)biphenyl-4-yl]carbonyl}-N-(3,4,5-trimethoxybenzyl)-L-α-glutamine] | –
